Results taken from patent US11987788B2, “Methods and compositions for changing the composition of the skin microbiome using complex mixtures of bacterial strains” (S-Biomedic NV, priority 2015, dated 2024).
≈ marks a conversion by molar mass, not a printed value. Like-named read-outs stand apart in the source and are kept apart here. No end group written: not given here.

What was measured:
facial acne vulgaris = test: Pilot clinical study, lesion count and irritation evaluated by a dermatologist; type: in vivo, human
[1] = test system: Propionibacterium acnes (ATCC 6919); test: Minimum Inhibitory Concentration Assay; type: cell-based; conditions: ATCC 6919 (A1), visible growth, duplicate
Experimental: (§1) The Minimum Inhibitory Concentration Assay assessed the in vitro antimicrobial potency of the test compound. […] 4 compounds were tested, which are commonly used in cosmetics or to treat acne for their effect on the growth of different P. acnes strains. The 4 tested compounds were glycolic acid, salicylic acid, lactic acid and hyaluronic acid. The first 3 are commonly used in products to treat acne, while the last one is a commonly used cosmetic compound. Any other compound can be tested the same way. The test substance was dissolved in water or DMSO (for salicylic acid) and 4 μl of the test substance was added to 196 μl of growth medium resulting in the highest tested compound concentration. Then this concentration was diluted by 2-fold serial titrations, for a total of 11 concentrations and the final vehicle concentration was 2 percent. Following incubation, the test plate was visually examined and each well was scored for growth or complete inhibition of growth; then the MIC was recorded. Each test substance was evaluated in duplicate. Vehicle-control and an active reference agent (clindamycin) were used as blank and positive controls, respectively. The following three strains were used to assess whether strain specific differences in the tolerance to these compounds could be observed: • Propionibacterium acnes (ATCC 11827)—A5 • Propionibacterium acnes (ATCC 29399) • Propionibacterium acnes (ATCC 6919)—A1 The final concentrations for each tested compound were: • 1. […] Lactic acid: 100% (13.4M): […]

[2] = test system: Propionibacterium acnes (ATCC 11827); test: Minimum Inhibitory Concentration Assay; type: cell-based; conditions: ATCC 11827 (A5), visible growth, duplicate
Experimental: as §1

[3] = test system: Propionibacterium acnes (ATCC 29399); test: Minimum Inhibitory Concentration Assay; type: cell-based; conditions: duplicate
Experimental: as §1

acne = conditions: McLane, 2001; cited from earlier work
Seb E6/E7 sebocytes [4] = test system: Seb E6/E7 sebocytes
Seb E6/E7 sebocytes [5] = test: Neutral lipid staining with HCS LipidTOX (lipid production); type: cell-based; conditions: 72 h stimulation; whole-well 5× and individual-cell 20× analysis
Experimental: An image at 5× magnification was taken from each well and then the relative fluorescence intensity quantified. Each condition was measured in triplicates. As a control, the cells were either unstimulated (blank) or stimulated with cis-9, cis-12 linoleic acid (not shown).
As a negative control, a non-stimulated blank was used and as positive control, the cells were stimulated for lipogenesis with cis-9, cis-12 linoleic acid.
Seb E6/E7 cells, which were seeded in 96-well plates and stimulated as described above were then analyzed for the induction lipid production. After 72 h of stimulation, the cells were stained with HCS LipidTOX deep red neutral lipid stain from Thermo Fisher (product no. H34477) according to the manufacturer's instructions. A final dilution of 1:450 of HCS LipidTOX dye in PBS was used for the staining. The amount of fluorescence was then evaluated using an inverted fluorescence microscope. In one approach, a complete well was imaged at 5× magnification and the total fluorescence in the image was quantified. A clear dose-dependent induction of lipid production was seen. […]
Alternatively, the fluorescent signal of individual cells, which were randomly selected from a higher magnification images, were quantified. 10 cells per image and 3 wells per condition were quantified. […]

P. acnes = conditions: Allgaier et al., 1985; cited from earlier work
[6] = Cutibacterium acnes, ATCC29399, visible growth

O=C(OOC(=O)c1ccccc1)c1ccccc1 [Benzoyl Peroxide, Benzoyl peroxide]
subjects with reduced lesions (facial acne vulgaris; end of week 1, of 10 subjects): 4 subjects | subjects improved (dermatologist evaluation, lesions) (facial acne vulgaris; week 1 (day 7), end of 7-day Benzoyl Peroxide phase, 10 subjects): 40%

O=C(O)CO [Glycolic acid, glycolic acid]
MIC ([1]; Cutibacterium acnes, ATCC6919): 18 mM (≈ 1370 µg/mL) | MIC ([2]; Cutibacterium acnes, ATCC11827): 18 mM (≈ 1370 µg/mL) | MIC [3, 6]: 60 mM (≈ 4560 µg/mL)

CC1=C(/C=C/C(C)=C/C=C/C(C)=C\C(=O)O)C(C)(C)CCC1 [Isotretinoin]
side effects (acne): causes skin irritation and also has teratogenic effects

CCCCC/C=C\C/C=C\CCCCCCCC(=O)O [cis-9, cis-12 linoleic acid]
cytotoxic effect (low XTT metabolic activity with high LDH activity) (Seb E6/E7 sebocytes [4]; 5 days exposure, different concentrations, triplicates): no significant effect | induction of lipogenesis (relative fluorescence of neutral lipids) (Seb E6/E7 sebocytes [5]): induce lipogenesis

CC(O)C(=O)O (centres unmarked) [lactic acid]
MIC (inhibition of growth) [1]: 0.2% | MIC (inhibition of growth) [2]: 0.2% | MIC (inhibition of growth) ([3]; visible growth): 0.6%

O=C(O)c1ccccc1O [salicylic acid]
MIC ([1]; Cutibacterium acnes, ATCC6919): > 6 mM | MIC ([2]; Cutibacterium acnes, ATCC11827): > 6 mM | MIC [3, 6]: > 6 mM

CCCCC/C=C\C=C\CCCCCCCCC(=O)O [trans-10, cis 12 linoleic acid, trans-10, cis-12 linoleic acid]
cytotoxic effect (low XTT metabolic activity with high LDH activity) (Seb E6/E7 sebocytes [4]): clear dose-dependent cytotoxic effect | induction of lipogenesis (relative fluorescence of neutral lipids) (Seb E6/E7 sebocytes [5]): dose-dependent induction of lipogenesis

Epidermin: lantibiotic, antibiotic-like peptide naturally produced by S. epidermidis (IASKFICTPGCAKTGSFNSYCC; also: lantibiotic: lanthionine-type bridges, places not given here; UniProt P08136 31-52, looked up)
activity against P. acnes (P. acnes): highly active

hyaluronic acid
MIC [1]: > 6e-05 mM | MIC [2]: > 6e-05 mM | MIC ([3]; visible growth): > 6e-05 mM
